Results from EP2527322A1, “Carbamyl alkylphenyl disulfide derivatives and their therapeutic uses” (NOSCIRA, S.A., priority 2011, dated 2012).

Columns and labels:
[1] = system: phosphorylation at the Ser-396 residue of Tau protein in human neuroblastoma SH-SY5Y cells; test: Cellular assay: Tau Ser-396 phosphorylation by ELISA in SH-SY5Y cells; type: cell-based; conditions: 18 h incubation at 37°C, 1% (v/v) DMSO, read-out: pSer396-Tau average EC50
Description: The effect of the compound in cells is determined by monitoring the level of phosphorylation at the Ser-396 residue of Tau protein in human neuroblastoma SH-SY5Y cells. Cells are grown in 96-well plates: 30,000 cells per well in a volume of 100 µl of 1:1 MEM:Ham's F12 medium including 10% (v/v) fetal bovine serum, 100 U/ml penicillin, 100 µg/ml streptomycin and 1% (v/v) 100-fold concentrated commercial stock of non-essential aminoacids (Gibco, Carlsbad, CA, USA), and incubated at 37°C during 24 h. Then, the corresponding amount of test compound is added to the wells to reach the desired concentration in 1% (v/v) DMSO. […] 60 µl of this mixture is then placed in an empty 96-well plate and the levels of Ser-396 phosphorylation are determined using a commercial ELISA kit (Biosource, Carlsbad, CA, USA), following manufacturer's instructions. The levels of phosphorylation are expressed as percentage values, after normalizing them to those in untreated cells and those values are used to calculate EC50s, as described above for GSK-3.

human recombinant GSK3β = target: T1, human recombinant GSK3β (Homo sapiens, UniProt P49841); test: GSK-3β enzymatic assay (Z'-LYTE FRET); type: biochemical; conditions: 2 nM enzyme, 12.5 µM ATP, 2 µM substrate peptide, 60 min incubation at room temperature; read-out: GSK3β inhibition average EC50
T1 construct: 6His (N); purchased Millipore (Billerica, MA, USA)
Description: The enzymatic activity of GSK3β was determined with a commercial system based on the Z'-LYTE® technology, available from Invitrogen Life Technologies (Carlsbad, CA, USA), using human recombinant GSK3β (N-terminal 6His-tagged recombinant enzyme with an H350L mutation) from Millipore (Billerica, MA, USA) as the enzyme source. This technology utilizes the fluorescence resonance energy transfer ("FRET") process between fluorescein and coumarin. The assay principle is based on the differential sensitivity of phosphorylated and non-phosphorylated peptide to proteolytic cleavage, which precludes the energy transfer process between the two fluorophores attached to both sides of the cleavage site. […] The assay is performed in 384-well black plates, in a final volume of 10 µl, with 2 nM enzyme concentration in 50 mM Hepes pH 7.5, 50 mM MgCl2, 1 mM EGTA and 0.05% Brij-35, using 12.5 µM ATP and 2 µM substrate peptide. The latter is a synthetic peptide, provided by Invitrogen under the commercial name "Ser/Thr 9 peptide", and it is based upon the sequence of a GSK3β substrate protein (glycogen synthase I) containing Ser-641. The peptide is labeled at both ends with fluorescein and coumarin. The assay is carried out in the presence of different concentrations of the tested compound, at a final 1% (v/v) DMSO concentration. After a 60 min incubation at room temperature, 5 µl of a commercial protease solution (sold by the same vendor in the assay kit) is added and a subsequent 1h incubation at room temperature is performed, before adding 5 µl of a suitable "stop solution", also provided by the vendor in the kit. After that, fluorescence intensity is recorded, monitoring emission at both 445 and 520 nm, upon excitation at 400 nm. An emission ratio is finally calculated, using the quotient among the emission at 445 nm divided by that at 520 nm.
The emission ratio of each tested sample is normalized to that of the control wells, so that for every compound concentration the percentage of inhibition is calculated by using the following equation: %Inhibition = 100⋅(E-S)/(E-B) [formula] wherein "S" is the emission ratio of the sample being considered, "E" is the average emission ratio of wells, including enzyme in the absence of inhibitors, and "B" is the average emission ratio of wells without enzyme. The inhibition values obtained at every compound concentration are finally used to calculate the EC50 of the tested compound, this parameter being the concentration of the compound which causes 50% of inhibition. For that purpose, the data were fitted to a classical 4-parameters isotherm equation using the nonlinear regression function of GraphPad™ Prism 5.0 (GraphPad Software Inc.). Such equation is described below: % Inhibition = L + (H-L)/(1 + (((EC50)/(C)))^n) [formula] wherein "L" is the lower asymptote of the theoretical sigmoidal curve, "H" is the higher asymptote, "C" is the concentration of compound and "n" is the Hill coefficient.

T1 sequence (P49841 whole entry): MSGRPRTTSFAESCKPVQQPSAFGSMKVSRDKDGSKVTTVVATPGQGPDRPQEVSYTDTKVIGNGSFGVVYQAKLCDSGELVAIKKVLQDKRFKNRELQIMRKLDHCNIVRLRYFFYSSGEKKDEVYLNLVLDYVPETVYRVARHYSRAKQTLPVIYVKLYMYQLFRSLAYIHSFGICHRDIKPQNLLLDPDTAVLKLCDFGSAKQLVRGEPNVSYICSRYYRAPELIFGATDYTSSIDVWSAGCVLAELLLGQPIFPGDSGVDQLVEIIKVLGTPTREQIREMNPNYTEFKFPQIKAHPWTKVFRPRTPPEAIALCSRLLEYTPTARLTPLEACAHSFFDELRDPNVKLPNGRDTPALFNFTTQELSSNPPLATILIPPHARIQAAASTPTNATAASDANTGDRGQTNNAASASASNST

EC50 [1] | EC50 (human recombinant GSK3β) | Structure (SMILES)
4.2 µM | 290 nM | COC(=O)CN(C)C(=O)SSCc1ccccc1 [Compound 1, [Methyl-(4-phenyl-2,3-dithia-butyryl)-amino]-acetic acid methyl ester]
– | 460 nM | CCOC(=O)CNC(=O)SSCc1ccccc1 [Compound 2, (4-Phenyl-2,3-dithia-butyrylamino)-acetic acid ethyl ester]
– | 3900 nM | CCOC(=O)[C@H](Cc1ccccc1)NC(=O)SSCc1ccccc1 [Compound 3, (2S) 3-Phenyl-2-(4-phenyl-2,3-dithia-butyrylamino)-propionic acid ethyl ester]
– | 1500 nM | CCOC(=O)[C@H](Cc1ccc(O)cc1)NC(=O)SSCc1ccccc1 [Compound 4, (2S) 3-(4-Hydroxy-phenyl)-2-(4-phenyl-2,3-dithia-butyrylamino)-propionic acid ethyl ester]
– | 14000 nM | CCOC(=O)[C@H](CC(C)C)NC(=O)SSCc1ccccc1 [Compound 5, (2S) 4-Methyl-2-(4-phenyl-2,3-dithia-butyrylamino)-pentanoic acid ethyl ester]
– | 910 nM | CCOC(=O)CCNC(=O)SSCc1ccccc1 [Compound 7, 3-(4-Phenyl-2,3-dithia-butyrylamino)-propionic acid ethyl ester]
– | 6800 nM | CCOC(=O)CC[C@H](NC(=O)SSCc1ccccc1)C(=O)OCC [Compound 8, (2S) 2-(4-Phenyl-2,3-dithia-butyrylamino)-pentanedioic acid diethyl ester]
– | 5400 nM | CCOC(=O)[C@H](C)NC(=O)SSCc1ccccc1 [Compound 9, (2S) 2-(4-Phenyl-2,3-dithia-butyrylamino)-propionic acid ethyl ester]
– | 8700 nM | COC(=O)CC(NC(=O)SSCc1ccccc1)C(=O)OC (centres unmarked) [Compound 10]
– | 3300 nM | COC(=O)[C@@H](Cc1c[nH]c2ccccc12)NC(=O)SSCc1ccccc1 [Compound 11]
– | 260 nM | CCOC(=O)CN(Cc1ccccc1)C(=O)SSCc1ccccc1 [Compound 12]
– | 220 nM | CCOC(=O)CN(CC(=O)OCC)C(=O)SSCc1ccccc1 [Compound 13]
– | 130 nM | COC(=O)[C@@H]1CCCN1C(=O)SSCc1ccccc1 [Compound 14]
– | 1300 nM | COC(=O)C(Cc1ccccc1)NC(=O)SSCc1ccccc1 (centres unmarked) [Compound 16]
– | 470 nM | O=C(SSCc1ccccc1)N1C(=O)c2ccccc2C1=O [Compound 17]
– | 10000 nM | CN(C(=O)SSCc1ccccc1)C(=O)c1ccccc1 [Compound 18]
